Results as given in patent US9670227B2, “Thienopyrimidine derivatives, a process for their preparation and pharmaceutical compositions containing them” (LES LABORATOIRES SERVIER, priority 2013, dated 2017).
Where two headings read alike, the source gives them in different places.

What was measured:
Mcl-1 protein = Mcl-1 protein (UniProtKB primary accession number: Q07820) (Homo sapiens, UniProt Q07820); experiment: Inhibition of Mcl-1 by fluorescence polarisation, Method 1; assay type: binding; conditions: fluorescence polarisation; Method 1, or Method 2; read-out: IC50 (M) Mcl-1 FP
Sequence of Mcl-1 protein (Q07820 whole entry): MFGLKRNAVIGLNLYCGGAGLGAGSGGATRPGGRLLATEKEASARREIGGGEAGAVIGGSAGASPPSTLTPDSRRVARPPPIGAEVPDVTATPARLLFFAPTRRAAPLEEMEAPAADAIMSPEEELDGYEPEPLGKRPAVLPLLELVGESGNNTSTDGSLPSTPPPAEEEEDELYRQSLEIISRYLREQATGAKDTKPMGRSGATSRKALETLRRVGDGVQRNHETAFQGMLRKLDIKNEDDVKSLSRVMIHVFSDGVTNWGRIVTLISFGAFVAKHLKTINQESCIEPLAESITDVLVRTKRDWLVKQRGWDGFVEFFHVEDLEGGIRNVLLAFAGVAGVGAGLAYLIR
Summary of the method: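 An 11-point DMSO dilution of compound is mixed with buffer (10 mM HEPES, 150 mM NaCl, 0.05% Tween 20, pH 7.4) carrying 1 nM fluorescein-labelled ligand and 5 nM Mcl-1, final concentrations. Displacement is monitored by fluorescence polarisation.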

[1] = test system: H929 multiple myeloma tumour line; experiment: In vitro cytotoxicity, Microculture Tetrazolium Assay; assay type: cell-based; conditions: H929 cells, 48 hours exposure, MTT, read-out: IC50 (μM) MTT H929
Procedure: The cytotoxicity studies were carried out on the H929 multiple myeloma tumour line.
The cells are distributed onto microplates and exposed to the test compounds for 48 hours.

[2] = test system: AMO-1 multiple myeloma cells; experiment: Quantification of the cleaved form of PARP in vivo (MSD ELISA, tumour lysates); set-up: species or system mice (SCID strain); conditions: activation factor: cleaved PARP in treated mice / control mice, AMO-1 xenograft in SCID mice, intraveinous or oral routes
Procedure: The ability of the compounds of the invention to induce apoptosis, by measuring cleaved PARP levels, is evaluated in a xenograft model of AMO-1 multiple myeloma cells. 1.10^7 AMO-1 cells are grafted sub-cutaneously into immunosuppressed mice (SCID strain). 12 to 14 days after the graft, the animals are treated by intraveinous or oral routes with the various compounds. After treatment, the tumour masses are recovered and lysed, and the cleaved form of PARP is quantified in the tumour lysates.
The quantification is carried out using the “Meso Scale Discovery (MSD) ELISA platform” test, which specifically assays the cleaved form of PARP. It is expressed in the form of an activation factor corresponding to the ratio between the quantity of cleaved PARP in the treated mice divided by the quantity of cleaved PARP in the control mice.

Row | IC50 (Mcl-1 protein) [M] | SMILES | IC50 [1] [µM] | PARP fold [2] [fold] | IC50 ([1]; Homo sapiens, NCI-H929, 48 h) [µM]
1 | 1.4e-09 | Cc1c(-c2c(-c3ccc(F)cc3)sc3ncnc(OC(Cc4ccccc4OCc4ccnc(-c5ccccc5O)n4)C(=O)O)c23)ccc(OCCN2CCN(C)CC2)c1Cl [Example 722, (2R)-2-{[(5Sa)-5-{3-chloro-2-methyl-4-[2-(4-methylpiperazin-1-yl)ethoxy]phenyl}-6-(4-fluorophenyl)thieno[2,3-d]pyrimidin-4-yl]oxy}-3-(2-{[2-(2-hydroxyphenyl)pyrimidin-4-yl]methoxy}phenyl)propanoic acid] | – | 296.6 | 0.023
2 | 1.18e-09 | Cc1c(-c2c(-c3ccc(F)cc3)sc3ncnc(OC(Cc4ccccc4OCc4ccnc(-c5ccccc5OC(C)C)n4)C(=O)O)c23)ccc(OCCN2CCN(C)CC2)c1Cl [Example 723, (2R)-2-{[(5Sa)-5-{3-chloro-2-methyl-4-[2-(4-methylpiperazin-1-yl)ethoxy]phenyl}-6-(4-fluorophenyl)thieno[2,3-d]pyrimidin-4-yl]oxy}-3-[2-({2-[2-(propan-2-yloxy)phenyl]pyrimidin-4-yl}methoxy)phenyl]propanoic acid] | – | 191.2 | 0.004
3 | 9.48e-10 | COCCOc1ccccc1-c1nccc(COc2ccccc2CC(Oc2ncnc3sc(-c4ccc(F)cc4)c(-c4ccc(OCCN5CCN(C)CC5)c(Cl)c4C)c23)C(=O)O)n1 [Example 724, (2R)-2-{[(5Sa)-5-{3-chloro-2-methyl-4-[2-(4-methylpiperazin-1-yl)ethoxy]phenyl}-6-(4-fluorophenyl)thieno[2,3-d]pyrimidin-4-yl]oxy}-3-[2-({2-[2-(2-methoxyethoxy)phenyl]pyrimidin-4-yl}methoxy)phenyl]propanoic acid] | – | 188.9 | 0.002
4 | 1.18e-09 | CCc1ccccc1-c1nccc(COc2ccccc2C[C@@H](Oc2ncnc3sc(-c4ccc(F)cc4)c(-c4ccc(OCCN5CCN(C)CC5)c(Cl)c4C)c23)C(=O)O)n1 [Example 726, (2R)-2-{[(5Sa)-5-{3-chloro-2-methyl-4-[2-(4-methylpiperazin-1-yl)ethoxy]phenyl}-6-(4-fluorophenyl)thieno[2,3-d]pyrimidin-4-yl]oxy}-3-(2-{[2-(2-ethylphenyl)pyrimidin-4-yl]methoxy}phenyl)propanoic acid] | 0.011 | 112.5 | –

Continued, compound first:

Row | SMILES | IC50 (Mcl-1 protein) [M] | IC50 [1] [µM] | PARP fold [2] [fold] | IC50 ([1]; Homo sapiens, NCI-H929, 48 h) [µM]
5 | CC#Cc1sc2ncnc(O[C@H](Cc3ccccc3OCc3ccnc(-c4ccncc4C)n3)C(=O)O)c2c1-c1ccc(OCCN2CCN(C)CC2)c(Cl)c1C [Example 483, (2R)-2-{[(5Sa)-5-{3-chloro-2-methyl-4-[2-(4-methylpiperazin-1-yl)ethoxy]phenyl}-6-(prop-1-yn-1-yl)thieno[2,3-d]pyrimidin-4-yl]oxy}-3-(2-{[2-(3-methylpyridin-4-yl)pyrimidin-4-yl]methoxy}phenyl)propanoic acid] | 5.2e-09 | 0.003 | 411 | –
6 | CC#Cc1sc2ncnc(OC(Cc3ccccc3OCc3ccnc(N4CCOCC4)n3)C(=O)O)c2c1-c1ccc(OCCN2CCN(C)CC2)c(Cl)c1C [Example 485, (2R)-2-{[(5Sa)-5-{3-chloro-2-methyl-4-[2-(4-methylpiperazin-1-yl)ethoxy]phenyl}-6-(prop-1-yn-1-yl)thieno[2,3-d]pyrimidin-4-yl]oxy}-3-(2-{[2-(morpholin-4-yl)pyrimidin-4-yl]methoxy}phenyl)propanoic acid] | 4.3e-09 | – | 110.8 | 0.012
7 | CC#Cc1sc2ncnc(OC(Cc3ccccc3OCc3ccnc(OCC(F)(F)F)n3)C(=O)O)c2c1-c1ccc(OCCN2CCN(C)CC2)c(Cl)c1C [Example 487, (2R)-2-{[(5Sa)-5-{3-chloro-2-methyl-4-[2-(4-methylpiperazin-1-yl)ethoxy]phenyl}-6-(prop-1-yn-1-yl)thieno[2,3-d]pyrimidin-4-yl]oxy}-3-(2-{[2-(2,2,2-trifluoroethoxy)pyrimidin-4-yl]methoxy}phenyl)propanoic acid] | 6.5e-09 | – | 141.4 | 0.004
8 | CC#Cc1sc2ncnc(OC(Cc3ccccc3OCc3ccnn3C(C)(C)C)C(=O)O)c2c1-c1ccc(OCCN2CCN(C)CC2)c(Cl)c1C [Example 488, (2R)-3-{2-[(1-tert-butyl-1H-pyrazol-5-yl)methoxy]phenyl}-2-{[(5Sa)-5-{3-chloro-2-methyl-4-[2-(4-methylpiperazin-1-yl)ethoxy]phenyl}-6-(prop-1-yn-1-yl)thieno[2,3-d]pyrimidin-4-yl]oxy}propanoic acid] | 5.4e-09 | – | 175.5 | 0.014
9 | CC#Cc1sc2ncnc(OC(Cc3ccccc3OCc3ccnn3CC(F)(F)F)C(=O)O)c2c1-c1ccc(OCCN2CCN(C)CC2)c(Cl)c1C [Example 489, (2R)-2-{[(5Sa)-5-{3-chloro-2-methyl-4-[2-(4-methylpiperazin-1-yl)ethoxy]phenyl}-6-(prop-1-yn-1-yl)thieno[2,3-d]pyrimidin-4-yl]oxy}-3-(2-{[1-(2,2,2-trifluoroethyl)-1H-pyrazol-5-yl]methoxy}phenyl)propanoic acid] | 1.2e-09 | – | 233.2 | 0.026
10 | COc1ccc(-c2nccc(COc3ccccc3CC(Oc3ncnc4sc(-c5ccc(F)cc5)c(-c5ccc(OCCN6CCN(C)CC6)c(Cl)c5C)c34)C(=O)O)n2)c(C(F)(F)F)c1 [Example 729, (2R)-2-{[(5Sa)-5-{3-chloro-2-methyl-4-[2-(4-methylpiperazin-1-yl)ethoxy]phenyl}-6-(4-fluorophenyl)thieno[2,3-d]pyrimidin-4-yl]oxy}-3-[2-({2-[4-methoxy-2-(trifluoromethyl)phenyl]pyrimidin-4-yl}methoxy)phenyl]propanoic acid] | 1.24e-09 | – | 221 | 0.009
11 | Cc1cc(-c2nccc(COc3ccccc3CC(Oc3ncnc4sc(-c5ccc(F)cc5)c(-c5ccc(OCCN6CCN(C)CC6)c(Cl)c5C)c34)C(=O)O)n2)c(C)cn1 [Example 731, (2R)-2-{[(5Sa)-5-{3-chloro-2-methyl-4-[2-(4-methylpiperazin-1-yl)ethoxy]phenyl}-6-(4-fluorophenyl)thieno[2,3-d]pyrimidin-4-yl]oxy}-3-(2-{[2-(2,5-dimethylpyridin-4-yl)pyrimidin-4-yl]methoxy}phenyl)propanoic acid] | 9.48e-10 | – | 175.5 | 0.005
12 | CCc1c(-c2c(-c3ccc(F)cc3)sc3ncnc(O[C@H](Cc4ccccc4OCc4ccnc(-c5ccccc5OC)n4)C(=O)O)c23)ccc(OCCN2CCN(C)CC2)c1Cl [Example 741, (2R)-2-{[(5Sa)-5-{3-chloro-2-ethyl-4-[2-(4-methylpiperazin-1-yl)ethoxy]phenyl}-6-(4-fluorophenyl)thieno[2,3-d]pyrimidin-4-yl]oxy}-3-(2-{[2-(2-methoxyphenyl)pyrimidin-4-yl]methoxy}phenyl)propanoic acid] | 9.48e-10 | 0.002 | 244 | –
13 | COc1ccccc1-c1nccc(COc2ccccc2CC(Oc2ncnc3sc(-c4ccc(F)cc4)c(-c4ccc(OCCN5CCN(C)CC5)c(Cl)c4Br)c23)C(=O)O)n1 [Example 742, (2R)-2-{[(5Sa)-5-{2-bromo-3-chloro-4-[2-(4-methylpiperazin-1-yl)ethoxy]phenyl}-6-(4-fluorophenyl)thieno[2,3-d]pyrimidin-4-yl]oxy}-3-(2-{[2-(2-methoxyphenyl)pyrimidin-4-yl]methoxy}phenyl)propanoic acid] | 9.48e-10 | – | 267.2 | 0.002
